In the NIST ThermoML archive (doi:10.1016/j.fluid.2008.10.003):
Numbers after ± are expanded uncertainties.

Assay: isobaric coefficient of expansion; xn = mol fraction of the nth substance listed
Details: calorimetric method

CCCCCCO [hexan-1-ol] + CCCCCC
isobaric coefficient of expansion
Details | 5000 kPa | 10000 kPa | 15000 kPa | 20000 kPa | 25000 kPa | 30000 kPa | 35000 kPa | 40000 kPa | 45000 kPa | 50000 kPa
278.15 K, x1 = 0.0321 | 0.00122 ± 5.2e-05 1/K | 0.00117 ± 5e-05 1/K | 0.00114 ± 4.8e-05 1/K | 0.0011 ± 4.7e-05 1/K | 0.00107 ± 4.5e-05 1/K | 0.00104 ± 4.4e-05 1/K | 0.00101 ± 4.3e-05 1/K | 0.000982 ± 4.2e-05 1/K | 0.000957 ± 4.1e-05 1/K | 0.000935 ± 4e-05 1/K
278.15 K, x1 = 0.041 | 0.00122 ± 5.2e-05 1/K | 0.00118 ± 5e-05 1/K | 0.00114 ± 4.8e-05 1/K | 0.0011 ± 4.7e-05 1/K | 0.00107 ± 4.5e-05 1/K | 0.00104 ± 4.4e-05 1/K | 0.00101 ± 4.3e-05 1/K | 0.000977 ± 4.1e-05 1/K | 0.000958 ± 4.1e-05 1/K | 0.000937 ± 4e-05 1/K
278.15 K, x1 = 0.0946 | 0.00119 ± 5.1e-05 1/K | 0.00115 ± 4.9e-05 1/K | 0.00112 ± 4.7e-05 1/K | 0.00108 ± 4.6e-05 1/K | 0.00105 ± 4.5e-05 1/K | 0.00102 ± 4.3e-05 1/K | 0.000997 ± 4.2e-05 1/K | 0.000967 ± 4.1e-05 1/K | 0.000942 ± 4e-05 1/K | 0.000925 ± 3.9e-05 1/K
278.15 K, x1 = 0.1679 | 0.00116 ± 4.9e-05 1/K | 0.00112 ± 4.7e-05 1/K | 0.00108 ± 4.6e-05 1/K | 0.00105 ± 4.5e-05 1/K | 0.00102 ± 4.3e-05 1/K | 0.000996 ± 4.2e-05 1/K | 0.000974 ± 4.1e-05 1/K | 0.000947 ± 4e-05 1/K | 0.000923 ± 3.9e-05 1/K | 0.000907 ± 3.8e-05 1/K
278.15 K, x1 = 0.2153 | 0.00114 ± 4.8e-05 1/K | 0.0011 ± 4.7e-05 1/K | 0.00107 ± 4.5e-05 1/K | 0.00103 ± 4.4e-05 1/K | 0.00101 ± 4.3e-05 1/K | 0.000979 ± 4.2e-05 1/K | 0.000958 ± 4.1e-05 1/K | 0.000928 ± 3.9e-05 1/K | 0.000909 ± 3.9e-05 1/K | 0.000892 ± 3.8e-05 1/K
278.15 K, x1 = 0.3016 | 0.0011 ± 4.7e-05 1/K | 0.00106 ± 4.5e-05 1/K | 0.00103 ± 4.4e-05 1/K | 0.000999 ± 4.2e-05 1/K | 0.000978 ± 4.1e-05 1/K | 0.000953 ± 4e-05 1/K | 0.000932 ± 4e-05 1/K | 0.000911 ± 3.9e-05 1/K | 0.000887 ± 3.8e-05 1/K | 0.000868 ± 3.7e-05 1/K
278.15 K, x1 = 0.4075 | 0.00105 ± 4.5e-05 1/K | 0.00102 ± 4.3e-05 1/K | 0.000995 ± 4.2e-05 1/K | 0.000967 ± 4.1e-05 1/K | 0.000946 ± 4e-05 1/K | 0.000921 ± 3.9e-05 1/K | 0.000903 ± 3.8e-05 1/K | 0.000877 ± 3.7e-05 1/K | 0.000859 ± 3.6e-05 1/K | 0.000844 ± 3.6e-05 1/K
278.15 K, x1 = 0.503 | 0.00101 ± 4.3e-05 1/K | 0.000989 ± 4.2e-05 1/K | 0.000961 ± 4.1e-05 1/K | 0.00094 ± 4e-05 1/K | 0.000917 ± 3.9e-05 1/K | 0.000893 ± 3.8e-05 1/K | 0.000876 ± 3.7e-05 1/K | 0.000851 ± 3.6e-05 1/K | 0.000835 ± 3.5e-05 1/K | 0.00082 ± 3.5e-05 1/K
278.15 K, x1 = 0.594 | 0.000978 ± 4.1e-05 1/K | 0.000951 ± 4e-05 1/K | 0.000932 ± 4e-05 1/K | 0.000902 ± 3.8e-05 1/K | 0.000887 ± 3.8e-05 1/K | 0.000864 ± 3.7e-05 1/K | 0.00085 ± 3.6e-05 1/K | 0.000831 ± 3.5e-05 1/K | 0.000804 ± 3.4e-05 1/K | 0.0008 ± 3.4e-05 1/K
278.15 K, x1 = 0.6827 | 0.000937 ± 4e-05 1/K | 0.000916 ± 3.9e-05 1/K | 0.000897 ± 3.8e-05 1/K | 0.000874 ± 3.7e-05 1/K | 0.000857 ± 3.6e-05 1/K | 0.00084 ± 3.6e-05 1/K | 0.000824 ± 3.5e-05 1/K | 0.000804 ± 3.4e-05 1/K | 0.000791 ± 3.4e-05 1/K | 0.000775 ± 3.3e-05 1/K
278.15 K, x1 = 0.8013 | 0.000892 ± 3.8e-05 1/K | 0.000865 ± 3.7e-05 1/K | 0.000857 ± 3.6e-05 1/K | 0.000834 ± 3.5e-05 1/K | 0.000819 ± 3.5e-05 1/K | 0.000806 ± 3.4e-05 1/K | 0.000784 ± 3.3e-05 1/K | 0.000769 ± 3.3e-05 1/K | 0.000756 ± 3.2e-05 1/K | 0.000745 ± 3.2e-05 1/K
278.15 K, x1 = 0.8934 | 0.00085 ± 3.6e-05 1/K | 0.000837 ± 3.6e-05 1/K | 0.000817 ± 3.5e-05 1/K | 0.000803 ± 3.4e-05 1/K | 0.000789 ± 3.3e-05 1/K | 0.000775 ± 3.3e-05 1/K | 0.000756 ± 3.2e-05 1/K | 0.000751 ± 3.2e-05 1/K | 0.000733 ± 3.1e-05 1/K | 0.000723 ± 3.1e-05 1/K
278.15 K, x1 = 1 | 0.000821 ± 3.5e-05 1/K | 0.0008 ± 3.4e-05 1/K | 0.000788 ± 3.3e-05 1/K | 0.000778 ± 3.3e-05 1/K | 0.00076 ± 3.2e-05 1/K | 0.000748 ± 3.2e-05 1/K | 0.000733 ± 3.1e-05 1/K | 0.000723 ± 3.1e-05 1/K | 0.000716 ± 3e-05 1/K | 0.000708 ± 3e-05 1/K
298.15 K, x1 = 0.0321 | 0.0013 ± 5.5e-05 1/K | 0.00124 ± 5.3e-05 1/K | 0.0012 ± 5.1e-05 1/K | 0.00115 ± 4.9e-05 1/K | 0.00111 ± 4.7e-05 1/K | 0.00107 ± 4.5e-05 1/K | 0.00104 ± 4.4e-05 1/K | 0.00101 ± 4.3e-05 1/K | 0.00098 ± 4.2e-05 1/K | 0.000951 ± 4e-05 1/K
298.15 K, x1 = 0.041 | 0.0013 ± 5.5e-05 1/K | 0.00124 ± 5.3e-05 1/K | 0.0012 ± 5.1e-05 1/K | 0.00115 ± 4.9e-05 1/K | 0.00111 ± 4.7e-05 1/K | 0.00108 ± 4.6e-05 1/K | 0.00104 ± 4.4e-05 1/K | 0.00101 ± 4.3e-05 1/K | 0.000985 ± 4.2e-05 1/K | 0.000959 ± 4.1e-05 1/K
298.15 K, x1 = 0.0946 | 0.00127 ± 5.4e-05 1/K | 0.00122 ± 5.2e-05 1/K | 0.00118 ± 5e-05 1/K | 0.00113 ± 4.8e-05 1/K | 0.0011 ± 4.6e-05 1/K | 0.00106 ± 4.5e-05 1/K | 0.00103 ± 4.4e-05 1/K | 0.000999 ± 4.2e-05 1/K | 0.000969 ± 4.1e-05 1/K | 0.000946 ± 4e-05 1/K
298.15 K, x1 = 0.1679 | 0.00124 ± 5.2e-05 1/K | 0.00119 ± 5e-05 1/K | 0.00115 ± 4.9e-05 1/K | 0.0011 ± 4.7e-05 1/K | 0.00107 ± 4.5e-05 1/K | 0.00104 ± 4.4e-05 1/K | 0.00101 ± 4.3e-05 1/K | 0.000977 ± 4.1e-05 1/K | 0.00095 ± 4e-05 1/K | 0.000926 ± 3.9e-05 1/K
298.15 K, x1 = 0.2153 | 0.00121 ± 5.1e-05 1/K | 0.00116 ± 4.9e-05 1/K | 0.00112 ± 4.8e-05 1/K | 0.00108 ± 4.6e-05 1/K | 0.00105 ± 4.5e-05 1/K | 0.00102 ± 4.3e-05 1/K | 0.000988 ± 4.2e-05 1/K | 0.000962 ± 4.1e-05 1/K | 0.000936 ± 4e-05 1/K | 0.000913 ± 3.9e-05 1/K
298.15 K, x1 = 0.3016 | 0.00117 ± 4.9e-05 1/K | 0.00112 ± 4.8e-05 1/K | 0.00109 ± 4.6e-05 1/K | 0.00105 ± 4.4e-05 1/K | 0.00101 ± 4.3e-05 1/K | 0.000984 ± 4.2e-05 1/K | 0.000958 ± 4.1e-05 1/K | 0.000935 ± 4e-05 1/K | 0.000908 ± 3.9e-05 1/K | 0.000883 ± 3.7e-05 1/K
298.15 K, x1 = 0.4075 | 0.00112 ± 4.8e-05 1/K | 0.00108 ± 4.6e-05 1/K | 0.00105 ± 4.5e-05 1/K | 0.00102 ± 4.3e-05 1/K | 0.000986 ± 4.2e-05 1/K | 0.000957 ± 4.1e-05 1/K | 0.00093 ± 3.9e-05 1/K | 0.000912 ± 3.9e-05 1/K | 0.000888 ± 3.8e-05 1/K | 0.000868 ± 3.7e-05 1/K
298.15 K, x1 = 0.503 | 0.00108 ± 4.6e-05 1/K | 0.00104 ± 4.4e-05 1/K | 0.00101 ± 4.3e-05 1/K | 0.000982 ± 4.2e-05 1/K | 0.000952 ± 4e-05 1/K | 0.000928 ± 3.9e-05 1/K | 0.000904 ± 3.8e-05 1/K | 0.000879 ± 3.7e-05 1/K | 0.000864 ± 3.7e-05 1/K | 0.000844 ± 3.6e-05 1/K
298.15 K, x1 = 0.594 | 0.00103 ± 4.4e-05 1/K | 0.001 ± 4.2e-05 1/K | 0.000975 ± 4.1e-05 1/K | 0.000944 ± 4e-05 1/K | 0.00092 ± 3.9e-05 1/K | 0.000897 ± 3.8e-05 1/K | 0.000873 ± 3.7e-05 1/K | 0.000856 ± 3.6e-05 1/K | 0.000836 ± 3.5e-05 1/K | 0.000819 ± 3.5e-05 1/K
298.15 K, x1 = 0.6827 | 0.000993 ± 4.2e-05 1/K | 0.000965 ± 4.1e-05 1/K | 0.000939 ± 4e-05 1/K | 0.000913 ± 3.9e-05 1/K | 0.00089 ± 3.8e-05 1/K | 0.000868 ± 3.7e-05 1/K | 0.000846 ± 3.6e-05 1/K | 0.000827 ± 3.5e-05 1/K | 0.000812 ± 3.4e-05 1/K | 0.000794 ± 3.4e-05 1/K
298.15 K, x1 = 0.8013 | 0.000938 ± 4e-05 1/K | 0.000913 ± 3.9e-05 1/K | 0.00089 ± 3.8e-05 1/K | 0.000868 ± 3.7e-05 1/K | 0.000848 ± 3.6e-05 1/K | 0.00083 ± 3.5e-05 1/K | 0.000809 ± 3.4e-05 1/K | 0.000792 ± 3.4e-05 1/K | 0.000778 ± 3.3e-05 1/K | 0.000763 ± 3.2e-05 1/K
298.15 K, x1 = 0.8934 | 0.000896 ± 3.8e-05 1/K | 0.000874 ± 3.7e-05 1/K | 0.000855 ± 3.6e-05 1/K | 0.000835 ± 3.5e-05 1/K | 0.000816 ± 3.5e-05 1/K | 0.000797 ± 3.4e-05 1/K | 0.000781 ± 3.3e-05 1/K | 0.000763 ± 3.2e-05 1/K | 0.000751 ± 3.2e-05 1/K | 0.000739 ± 3.1e-05 1/K
298.15 K, x1 = 1 | 0.00085 ± 3.6e-05 1/K | 0.000832 ± 3.5e-05 1/K | 0.000812 ± 3.4e-05 1/K | 0.000796 ± 3.4e-05 1/K | 0.00078 ± 3.3e-05 1/K | 0.000764 ± 3.2e-05 1/K | 0.000749 ± 3.2e-05 1/K | 0.000734 ± 3.1e-05 1/K | 0.000724 ± 3.1e-05 1/K | 0.000712 ± 3e-05 1/K
